What is called Kd is the constant that tells how readily two partners part at equilibrium. As usually defined, the IC50 is the concentration that gives 50% inhibition.

Like-named read-outs stand apart in the source and are kept apart here.

Assay [1] has as its target GDP-bound NRAS wild-type protein (Homo sapiens, UniProt P01111). Put plainly: Binding to NRAS by surface plasmon resonance (SPR), Single Cycle Kinetics. As to conditions: for NRAS/KRAS (ratio of KD value for NRAS to KD value for KRAS): SPR, GDP-bound NRAS wild-type protein vs GDP-bound KRAS wild-type protein, KD ratio class. In general terms: Surface plasmon resonance follows binding to a sensor surface in real time, without labels.

Assay [2] concerns the target GDP-bound KRAS wild-type protein (Homo sapiens, UniProt P01116). Put plainly: Binding to KRAS by surface plasmon resonance (SPR), Single Cycle Kinetics. As to conditions: 1:1 binding model, GDP-bound KRAS wild-type protein, read-out: KRAS KD.
Assay [3] concerns human lung cancer strain NCI-H441.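 Note: cell proliferation inhibition after four days measured by CellTiter-Glo.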
Assay [4] deals with GDP-bound HRAS wild-type protein (Homo sapiens, UniProt P01112). Kind of assay: Binding to HRAS by surface plasmon resonance (SPR), Single Cycle Kinetics. As to conditions: for HRAS/KRAS (ratio of KD value for HRAS to KD value for KRAS): SPR, GDP-bound HRAS wild-type protein vs GDP-bound KRAS wild-type protein, KD ratio class.
Sequence of GDP-bound HRAS wild-type protein (P01112 whole entry): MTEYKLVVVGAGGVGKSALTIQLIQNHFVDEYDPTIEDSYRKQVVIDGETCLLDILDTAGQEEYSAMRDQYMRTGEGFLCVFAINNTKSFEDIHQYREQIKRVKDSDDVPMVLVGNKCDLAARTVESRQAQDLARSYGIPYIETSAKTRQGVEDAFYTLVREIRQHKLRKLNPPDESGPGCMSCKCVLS

Sequence of GDP-bound KRAS wild-type protein (P01116 whole entry): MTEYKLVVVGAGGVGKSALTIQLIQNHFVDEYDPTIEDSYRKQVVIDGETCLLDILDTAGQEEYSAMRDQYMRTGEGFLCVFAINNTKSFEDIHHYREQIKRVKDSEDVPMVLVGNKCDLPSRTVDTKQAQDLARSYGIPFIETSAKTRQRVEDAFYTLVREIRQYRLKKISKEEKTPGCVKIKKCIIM
Sequence of GDP-bound NRAS wild-type protein (P01111 whole entry): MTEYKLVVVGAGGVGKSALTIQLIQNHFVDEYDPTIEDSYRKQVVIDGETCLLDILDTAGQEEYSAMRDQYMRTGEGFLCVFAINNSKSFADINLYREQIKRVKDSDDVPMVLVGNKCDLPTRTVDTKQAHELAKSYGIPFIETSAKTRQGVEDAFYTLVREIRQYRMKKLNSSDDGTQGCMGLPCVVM

On to `CCO[C@@H]1C[C@H]2C(=O)NC3(CCC3)C(=O)N(C)[C@@H](C3CCCC3)C(=O)N(C)[C@H](C(=O)N3CCOCC3)CC(=O)N(C)[C@@H](CC)C(=O)N[C@@H]([C@@H](C)CC)C(=O)N(C)CC(=O)N(C)[C@H]3C[C@@H](C)[C@@H](C)CN(C3=O)[C@@H](Cc3ccc(C(F)(F)F)cc3)C(=O)N(C)CC(=O)N[C@@H](CCc3ccc(C(F)(F)F)c(Cl)c3)C(=O)N2C1` [PP1360], for which the “NRAS/KRAS (ratio of KD value for NRAS to KD value for KRAS)” value in assay [1] is “A (a compound having 10 or more and less than 20 is denoted as A)”. Further, in assay [2] (SPR, Single Cycle Kinetics), the Kd came to 0.055 nM. For the same compound, the IC50 in assay [3] came to 4.9 nM. Further, in assay [4], the “HRAS/KRAS (ratio of KD value for HRAS to KD value for KRAS)” value is “B (a compound having 3 or more and less than 10 is denoted as B)”.
`CCO[C@@H]1C[C@H]2C(=O)NC3(CCC3)C(=O)N(C)[C@@H](C3CCCC3)C(=O)N(C)[C@H](C(=O)N3CCOCC3)CC(=O)N(C)[C@@H](CC)C(=O)N[C@@H]([C@@H](C)CC)C(=O)N3CC[C@H]3C(=O)N(C)[C@H]3C[C@@H](C)[C@@H](C)CN(C3=O)[C@@H](Cc3ccc(C(F)(F)F)cc3)C(=O)N(C)CC(=O)N[C@@H](CCc3ccc(C(F)(F)F)c(Cl)c3)C(=O)N2C1` [PP1357]: the “NRAS/KRAS (ratio of KD value for NRAS to KD value for KRAS)” value in assay [1] was “A (a compound having 10 or more and less than 20 is denoted as A)”. Moreover, in assay [2] (SPR, Single Cycle Kinetics), the Kd is 0.13 nM. Besides, it took 5.4 nM to reach half-maximal inhibition in assay [3] (IC50). For the same compound, the “HRAS/KRAS (ratio of KD value for HRAS to KD value for KRAS)” value in assay [4] was “B (a compound having 3 or more and less than 10 is denoted as B)”.
In the case of `CCO[C@@H]1C[C@H]2C(=O)NC3(CCC3)C(=O)N(C)[C@@H](C3CCCC3)C(=O)N(C)[C@H](C(=O)N3CCCC3)CC(=O)N(C)[C@@H](C)C(=O)N[C@@H]([C@@H](C)CC)C(=O)N(C)CC(=O)N(C)[C@H]3C/C=C\CCN(C3=O)[C@@H](Cc3ccc(C(F)(F)F)cc3)C(=O)N(C)CC(=O)N[C@@H](CCc3cc(F)c(C(F)(F)F)c(F)c3)C(=O)N2C1` [PP1297, (2S,8S,12R,14S,20S,23S,27S,30S,36S,38Z)-20-cyclopentyl-8-[2-[3,5-difluoro-4-(trifluoromethyl)phenyl]ethyl]-12-ethoxy-4,19,22,26,27,32,35-heptamethyl-30-[(1S)-1-methylpropyl]-23-(pyrrolidine-1-carbonyl)-2-[[4-(trifluoromethyl)phenyl]methyl]spiro[1,4,7,10,16,19,22,26,29,32,35-undecazatricyclo[34.5.1.0^10,14]dotetracont-38-ene-17,1′-cyclobutane]-3,6,9,15,18,21,25,28,31,34,42-undecone], the “NRAS/KRAS (ratio of KD value for NRAS to KD value for KRAS)” value in assay [1] is listed as “AA (a compound having 20 or more is denoted as AA)”. Moreover, the Kd in assay [2] (SPR, Single Cycle Kinetics) worked out at 0.087 nM. This compound gave a half-maximal inhibitory concentration (IC50) in assay [3] of 23.1 nM. For the same compound, the “HRAS/KRAS (ratio of KD value for HRAS to KD value for KRAS)” value in assay [4] was “A (a compound having 10 or more and less than 20 is denoted as A)”.
As for `CCOC[C@H]1C(=O)N[C@@H]([C@@H](C)CC)C(=O)N(C)CC(=O)N(C)[C@H]2C/C=C\CCN(C2=O)[C@@H](Cc2ccc(C(F)(F)F)cc2)C(=O)N(C)CC(=O)N[C@@H](CCc2ccc(Cl)c(Cl)c2)C(=O)N2C[C@H](OCC)C[C@H]2C(=O)NC2(CC(C)(C)C2)C(=O)N(C)[C@@H](CC2CCC2)C(=O)N(C)[C@H](C(=O)N(C)C)CC(=O)N1C` [PP2767], in assay [1] (SPR KD ratio NRAS/KRAS, class symbols), the “NRAS/KRAS (ratio of KD value with respect to GDP-bound NRAS wild-type protein to KD value with respect to KRAS)” value is “A (a compound having 10 or more and less than 20 is denoted as A)”. Moreover, in assay [2] (SPR Single Cycle Kinetics), the Kd was found to be 0.49 nM. This compound also returned an IC50 in assay [3] of 62.6 nM. Also, the “HRAS/KRAS (ratio of KD value with respect to GDP-bound HRAS wild-type protein to KD value with respect to KRAS)” value in assay [4] (SPR KD ratio HRAS/KRAS, class symbols) is “A (a compound having 10 or more and less than 20 is denoted as A)”.

These data come from patent US20240158446A1, “CYCLIC COMPOUND HAVING SELECTIVE INHIBITORY ACTION ON KRAS OVER HRAS AND NRAS” (CHUGAI SEIYAKU KABUSHIKI KAISHA, priority 2021, published 2024).
